Legend:
Panc1 cells = details: cited from earlier work
AsPC1 cells = details: SMAD4 deficient AsPC1; treated 17 h, 20 h, 23 h after synchronization; cited from earlier work
[1] = system: BMAL1-Promoter activity in HCT116, SW480 and SW620 colon cancer cells; test: BMAL1-Promoter activity, live-cell bioluminescence recording over five days; assay type: cell-based, human; details: treated vs control, n=3
Protocol: Here, the three cell lines were treated with several anti-cancer drugs, including WZB117, Oxaliplatin and cisplatin, and the rhythmic promoter activity of BMAL1 was measured over several days (FIG. 13). […] More specifically, HCT116, SW480 and SW620 colon cancer cells were treated with Oxaliplatin, Cisplatin and WZB117. BMAL1-Promoter activity was measured using live-cell bioluminescence recording over five days. Shown is one representative plot for the control (black) and the treated (grey dashed) condition, n=3.
BMAL1-Promoter activity was measured using live-cell bioluminescence recording over five days. Shown is one representative plot for the control (black) and the treated (grey) condition, n=3.

mice = details: among six mouse categories; treatment tolerability as output; cited from earlier work
[2] = system: SW480 colorectal cancer cells; details: cited from earlier work; for effect of drug administration depending on time: control cells; for effect of drug administration depending on time after BMAL1 downregulation: core-clock gene BMAL1 downregulated
[3] = system: core-clock downregulated (shBMAL1, shNR1D1 and shPER2) HCT116 cancer cell lines; test: Cell proliferation measured using confluence after time-dependent treatment; assay type: cell-based, human; details: 10 μM; treated at 18 h, 21 h and 24 h after cell synchronization; confluence over five days; n=3
Protocol: FIG. 15 illustrates how cell proliferation for an exemplified for a human cancer cell type is affected by Cisplatin treatment in a time-dependent manner;
In addition to the BMAL1 rhythmicity data, preliminary data were obtained pointing towards the differential regulation of cancer cell proliferation based on the timing of drug administration. […] Cell proliferation was measured using confluence over five days. n=3.

SMILES	effect of drug application on rhythmicity of BMAL1 promoter activity [1]	effect of drug administration depending on time [2]	effect of drug administration depending on time after BMAL1 downregulation [2]	further results
Nc1ccn([C@@H]2O[C@H](CO)[C@@H](O)C2(F)F)c(=O)n1 [gemcitabine]				differential drug response to different treatment time points after gene downregulation (Panc1 cells; Panc1 with downregulation of NR1D1 or SMAD4): the differential drug response to different treatment time points is impaired; response to time-dependent treatment (Panc1 cells; SMAD4 proficient Panc1, treated 17 h, 20 h, 23 h after synchronization): more resistant to treatment; response to time-dependent treatment (AsPC1 cells): this effect is not observed
CCc1c2c(nc3ccc(OC(=O)N4CCC(N5CCCCC5)CC4)cc13)-c1cc3c(c(=O)n1C2)COC(=O)[C@]3(O)CC [Irinotecan]	alters BMAL1 rhythmic promoter activity			variation of optimal circadian timing along the 24 hours (mice): up to 8 hour
O=C1[O][Pt]2([NH][C@@H]3CCCC[C@H]3[NH]2)[O]C1=O [Oxaliplatin]	altered the rhythmicity of the core-clock gene BMAL1	time-dependent	this effect is lost	
N.N.[Cl][Pt][Cl] [Cisplatin]	altered the rhythmicity of the core-clock gene BMAL1			cell proliferation depending on timing of drug administration [3]: reduced cell proliferation for shNR1D1 and shPER2 cells, when cells were treated at 24 h after synchronization compared to the other time-points
O=C(Oc1cccc(F)c1OC(=O)c1cccc(O)c1)c1cccc(O)c1 [WZB117]	altered the rhythmicity of the core-clock gene BMAL1	time-dependent	this effect is lost	

Source: patent publication US20230313311A1, “METHOD OF ASSESSING THE CIRCADIAN RHYTHM OF A SUBJECT HAVING CANCER AND/OR ASSESSING A TIMING OF ADMINISTRATION OF A MEDICAMENT TO SAID SUBJECT HAVING CANCER” (priority 2020, published 2023)
